# Experimental data as given in patent US7358233B2, “Tetronic acid derivative” (Toudai TLO, Ltd, priority 2001, dated 2008).
# Experiments:
# [1] = system: GRP78; test: Western blotting of GRP78 induction in HT1080 cells under endoplasmic reticulum stress; format: cell-based; details: pretreated 30 min, 18 hours
# Experimental: Specifically, […] HT-29 and HT1080 were cultured in RPMI1640 medium and pretreated for 30 min with 3 μM and 30 μM VST. Next, the GRP78 level was detected 18 hours after each endoplasmic reticulum stress treatment by Western blotting (FIG. 10). […] This phenomenon could be elucidated for the first time by the use of VST.
# [2] = system: HT-29 cells; test: Re-examination of apoptosis inducing effect on HT-29 cells; format: cell-based
# Source text: Since the in vitro strong effect could not be confirmed in the animal experiment, the apoptosis inducing effect of VST on HT-29 cells was reexamined.
# [3] = system: GRP78 promoter; test: GRP78 promoter luciferase reporter analysis in HeLa78C6 cells, with tunicamycin-induced endoplasmic reticulum stress; format: cell-based, human
# Experimental: Screening for natural substances that may regulate the expression of GRP78 was performed. Specifically, herbal medicines, and respective metabolites of fungus and actinomyces were prepared as test samples. A screening system was prepared as follows. A GRP78 promoter region (−132 to +7) comprising three ERSE was inserted into the KpnI-BglII site of the multicloning site of pGL3-basic vector (Promega), and a luciferase gene was linked as a reporter gene downstream of the GRP78 promoter to construct a vector. […]
# The cell suspension (100 μL) was dispensed into each well of a 96-well plate and incubated at 37° C. in 5% CO2 for 6 hours. […] Then, luciferase activity of the cells was measured using a luciferase measurement kit (Luciferase Assay System: Promega, cat# E1501) following the instruction attached to the kit.
# The main culture was separated into culture supernatant and mycelial cake by centrifugation. Similar to Example 1, the activities to suppress GRP78 expression were measured by the reporter analysis method for the culture supernatant and mycelial cake product that was obtained by homogenizing the mycelial cake, respectively. […] Then, luciferase activity of the cells was measured using a luciferase measurement kit.
# Using pure VST purified in Example 3, its activity to suppress GRP78 promoter expression was quantitated. […]
# [4] = system: HeLa cells and various other culture cells; test: Survival rate of a variety of cells, MTT method (all cell lines together); format: cell-based
# Source text: In this Example, HeLa cells and various other culture cells were used to measure the survival rate during the above-mentioned reporter analysis and VST addition. Specifically, in addition to HeLa cells (human cervical cancer cells), MCF-7 (human breast cancer cells), PC12NH (rat pheochromocytoma), MDA-MB-231 (human breast cancer cells), TIG-3 (human normal fibroblast cells), HeLa 786C cells (human cervical cancer cells), Saos-2 (telomerase and p53-deficient human cancer cells) and SUSM-1 (telomerase-deficient human cancer cells) were used.
# The direct growth suppression activity of VST on these cells was measured using the MTT method. 100 μL cell suspension (5×10^4/mL) of each of the above-mentioned cells was dispensed into each well of a 96-well plate and cultured for 6 hours at 37° C. After culturing, VST solution diluted stepwise as in Example 4 was added thereto and cultured for another 24 hours. After culturing for 24 hours, 0.05 g/mL MTT solution (10 μL) was added to each well and incubation was performed at 37° C. for 4 hours. The medium was then removed, DMSO (100 μL) was added, and the absorbance at 530 nm was measured (FIG. 8).
# [5] = system: HT-29 cells; test: Antitumor effect against HT-29 cells transplanted into nude mice; format: in vivo
# Experimental: The antitumor effect of VST at the animal level was examined. Specifically, HT-29 cells were transplanted into nude mice and tumor was grown to 100 mm^3. Subsequently, each concentration of VST was administered through the tail vein, progress of cancer was followed each day thereafter, and the tumor was enucleated to compare its size. […] Furthermore, the combined effect with CDDP (cisplatin) was examined.
structure (smiles),measurement,setting,value
"CC/C1=C\C(CO)CC(C)C(OC2CC(O)C(OC3CC(OC)C(OC4CC(O)C(O)C(C)O4)C(C)O3)C(C)O2)C(C)CCCC2(C)C=C(C)C(C)CC23OC(=O)C(=C3O)C(=O)C2(CC)C1C(C)=CC1C(O)CC(=O)C(C)C12 (centres unmarked) [VST, versipelostatin]",induction of GRP78 by 2-DG,[1]; 3 μM VST,inhibits the induction of GRP78
same,GRP78 induction due to tunicamycin treatment,[1]; 30 μM VST,did not inhibit GRP78 induction
same,apoptosis induction effect,[2],fails to express apoptosis induction effect
same,growth suppression effect in colony forming tests,[2],shows growth suppression effect
same,suppression of the increase of luciferase activity (GRP78 promoter expression) due to tunicamycin,"[3]; sample added 30 min before tunicamycin 2 μg/mL, 18 hours",suppressed in concordance with the increase in VST concentration
same,"luciferase expression from the GRP78 promoter, VST alone",[3]; without tunicamycin addition,did not affect the expression of luciferase
same,degree of decrease of survival rate,"[4]; VST 100 μg/mL, many cell lines",≤ 50%
same,survival rate,[4]; VST approximately 10 μg/mL,slight decrease was observed in a few cell lines
same,survival rate,"[4]; VST final concentration of 1 μg/mL, all cell lines",No decrease in the survival rate was observed
same,antitumor effect (tumor size),"[5]; HT-29 tumor grown to 100 mm^3 in nude mice, VST through the tail vein (FIG. 15)","showed antitumor effect, although the effect was not as strong as cisplatin"
same,combined effect with CDDP (cisplatin),[5]; HT-29 tumor in nude mice,no effect due to the combination could be confirmed
